# According to US10202604B2, “Methods of using microRNA-141” (Stemirna Therapeutics Co., Ltd., priority 2016, dated 2019):
# Key:
# PPC-1 cells = assay: Clonal and sphere formation assays; type: cell-based, human
# Protocol: For clonal assays, cultured prostate cancer cells or human prostate cancer cells freshly purified from patient primary tumors were plated at a clonal density (i.e., 100 cells/well) in a 6-well plate. The number of holoclones (33) was counted several days later. For Matrigel-based sphere formation assays, cells in medium were plated (generally 1,000 cells/well) in Matrigel at 1:1 ratio in a total of 100 μl in 96-well plates. Spheres were enumerated 1-2 weeks after plating. For floating sphere formation assays, cells were plated in serum-free epithelial basal medium (PrEBM) supplemented with B27 (Invitrogen), and 20 ng/ml EGF and bFGF in ultra-low attachment (ULA) plate. Floating spheres that arose in 1-2 weeks were counted. For all these experiments, a minimum of triplicate wells was run for each condition and repeat experiments were performed when necessary and feasible.
# prostate cancer cells = assay: Cell death and senescence; type: cell-based; conditions: miR-141 expression
# CD44hi PC3 cells = assay: Dorsal prostate implantation, tumor growth and lung metastasis; type: in vivo, NOD/SCID mice; conditions: miR-141 via lentiviral infection; 100,000 cells into dorsal prostate
# Protocol: FACS-purified CD44^hi luciferase/GFP double-tagged PC3 cells were infected with Lenti-141 or Lenti-ctl (MOI 10) and 100,000 cells each were injected into the DP of NOD/SCID mice (n=9). Tumor growth and metastasis were monitored using bioluminescence imaging (IVIS). FIGS. 2A-2B show the representative images and quantification (in total photon flux) of primary tumors before termination of the experiment. FIGS. 2C-2D show the representative images (FIG. 2C) and quantification (FIG. 2D) of lung metastasis with the primary tumors covered. […] CD44^+ Du145 cells were infected with Lenti-ctl or Lenti-141 (MOI 10; 72 h) and cells were then injected into the DP of male NOD/SCID mice. Mice were terminated at day 56 and organs including lung were harvested for analyzing metastasis. Shown were representative IHC images of humanspecific Ki-67 staining. […] LAPC9-GFP cells were infected with TRIPZ-NS or TRIPZ-141 inducible lentivirus (MOI 10, 72 h) and CD44^+ cells were purified out by FACS. 100,000 cells each were injected into the DP of NOD/SCID mice and, from day 16 on, two groups of mice were treated with Dox (200 mg/kg body weight in feed). Tumor volumes were measure twice weekly (FIG. 2F). Mice were terminated at day 40 and endpoint tumors were harvested and weighted (FIG. 2G; incidence indicated in bars). […]
# [1] = test system: epithelial to mesenchymal transition markers in Du145 cells; assay: qPCR analysis of epithelial to mesenchymal transition markers; type: cell-based, human
# Protocol: (§1) FIGS. 3A-3J show partial suppression of epithelial to mesenchymal transition by miR-141 and CD44 as a direct target of miR-141. FIGS. 3A-3B show qPCR analysis of epithelial to mesenchymal transition markers in bulk (FIG. 3A) or CD44^+ (FIG. 3B) Du145 cells transfected with the miR-141 oligos (30 nM; 48 h). Results were presented as the relative expression levels over the cells transfected with the NC oligos. […] GAPDH was used as control and the relative protein levels after normalizing to GAPDH and NC controls were indicated below each lane. […] Shown below is the actual sequence in the region with the mutated miR-141 binding sequence indicated in grey (below). […] Shown are representative images. […] Du145 cells were co-transfected with NC or miR-141 oligos (30 nM) together with pBabe empty vector or pBabe-CD44 vector. After 48 h, cells were harvested for invasion assays. Bars, mean±SD. *, P<0.05; **, P<0.01.
# Total RNA was extracted using microRNA isolation kit (Life Technologies) according to the manufacturer's instructions. microRNA qPCRs were performed using TaqMan microRNA assays (Life Technologies). qPCR data for microRNAs were normalized to RNU48 whereas qPCR data for mRNAs were normalized to GAPDH.
# prostate cancer tumors = assay: Ki-67+ cells in miR-141-overexpressing tumors; type: in vivo
# human CD44 3'-UTR = assay: CD44 3'-UTR luciferase reporter assay; type: cell-based; conditions: Du145 cells
# Protocol: as §1, with “Bars, mean±SD. *, P<0.05; **, P<0.01.” left out
# The human CD44 3′-UTR was amplified from Du145 genomic DNA using primers 5′-[…]-3′ (SEQ ID NO: 2) and 5′-[…]-3′ (SEQ ID NO: 3), as previously described (13). […] The luciferase activities were detected using Duo-luciferase reporter assay system (Promega). Human RAC1, CDC42, CDC42EP3, and ARPC5 3′-UTR luciferase reporter constructs were obtained from SwitchGear Genomics (Menlo Park, Calif.) and luciferase activities were measured per the manufacturer's instructions using LightSwitch luciferase assay kit.
substance,measurement,setting,value
"miR-141: miR-141 mirVana mimics (Life Technologies); microRNA-141 oligonucleotide may have SEQ ID NO: 1; in some experiments over-expressed by lentiviral vectors (UAACACUGUCUGGUAAAGAUGG; listed as RNA, further chemistry not given here) [miR-141 mirVana mimics (Life Technologies); in some experiments over-expressed by lentiviral vectors]",clonal expansion,PPC-1 cells,inhibited
same,sphere formation,PPC-1 cells,inhibited
same,effects on cell death and senescence,prostate cancer cells,minimal effects
same,lung metastasis,CD44hi PC3 cells,less
same,primary tumors (size),CD44hi PC3 cells,smaller
same,E-cadherin (CDH1) mRNA,"[1]; CD44+ Du145 cells, 30 nM, 48 h",significant increase
same,mRNA levels of mesenchymal markers including VIM and ZEB1,"[1]; CD44+ Du145 cells, 30 nM, 48 h",generally reduced
same,"mRNA levels of most other EMT markers including FN, ZEB2, SNAI1, SNAI2, and TWIST",[1]; bulk Du145 cells,did not reduce
same,E-cadherin mRNA,"[1]; bulk Du145 cells, 30 nM, 48 h",increased
same,VIM and ZEB1 mRNA,"[1]; bulk Du145 cells, 30 nM, 48 h",decreased
same,Ki-67+ cells,prostate cancer tumors,reduced
same,"luciferase activity, CD44 3'-UTR with mutated miR-141 binding sequence",human CD44 3'-UTR,abrogated the suppressive effect of miR-141
same,"luciferase activity, wild-type CD44 3'-UTR reporter",human CD44 3'-UTR; vs negative control oligos,lower
